Reference: US5641485A, “Caledothricins used in the treatment mycotic diseases” (Hoffmann-La Roche Inc., priority 1994, dated 1997)
Values after ≈ are worked out from the molar mass of the structure shown. Like-named read-outs stand apart in the source and are kept apart here.

What was measured:
Cryptococcus neoformans = experiment: microbe, parasite or virus in culture
Procedure: (§1) MIC is defined as the minimal concentration of test compound at which no visible growth is detected. Culture media employed for measuring MICs were yeast nitrogen base (Difco) supplemented with 1% of glucose, 0.2% of low melting point agarose and 0.25% of K2 HPO4 (pH 7.0). The low melting point agarose was omitted when antifungal activity against Candida albicans and Cryptococcus neoformans was measured. The culture media were inoculated with fungal cells at the final concentration of 10,000 cfu/ml. Plates were incubated for 1-12 days at 27° C.

Candida albicans = experiment: microbe, parasite or virus in culture
Procedure: as §1

[1] = tested on: Trichophyton mentagrophytes; experiment: In vitro antifungal activity (MIC) against Trichophyton mentagrophytes; format: cell-based; conditions: strain CF1007, pH 7.0, 27° C., 10,000 cfu/ml, 0.2% low melting point agarose
Procedure: as §1

Absidia corymbifera = experiment: In vitro antifungal activity (MIC) against Absidia corymbifera; format: cell-based; conditions: Lichtheimia corymbifera; strain IFO8084; pH 7.0, 27° C., 10,000 cfu/ml, 0.2% low melting point agarose
Procedure: as §1

Aspergillus fumigatus [2] = conditions: pH 7.0, 27° C., 10,000 cfu/ml, 0.2% low melting point agarose
Procedure: as §1

Trichosporon beigelii = experiment: In vitro antifungal activity (MIC) against Trichosporon beigelii; format: cell-based; conditions: ATCC28592, strain ATCC 28592, pH 7.0, 27° C., 10,000 cfu/ml, 0.2% low melting point agarose
Procedure: as §1

Aspergillus fumigatus [3] = experiment: microbe, parasite or virus in culture; conditions: pH 7
Procedure: as §1

**Q.** Which results are given for OC(Cn1cncn1)(Cn1cncn1)c1ccc(F)cc1F [FCZ, fluconazole]?
**A.** MIC (Cryptococcus neoformans; pH 7, strain 422, pH 7.0, 27° C., 10,000 cfu/ml): > 200 µg/mL; MIC (Cryptococcus neoformans; pH 7, strain MTU13001, pH 7.0, 27° C., 10,000 cfu/ml): 12.5 µg/mL (≈ 40.8 µM); MIC (Candida albicans; ATCC48130, pH 7, strain ATCC48130, pH 7.0, 27° C., 10,000 cfu/ml): > 200 µg/mL; MIC (Candida albicans; pH 7, strain 652, pH 7.0, 27° C., 10,000 cfu/ml): > 200 µg/mL; MIC (Candida albicans; pH 7, strain AD, pH 7.0, 27° C., 10,000 cfu/ml): 200 µg/mL (≈ 653 µM); MIC (Candida albicans; pH 7, strain C42, pH 7.0, 27° C., 10,000 cfu/ml): > 200 µg/mL; MIC (Candida albicans; pH 7, strain KB, pH 7.0, 27° C., 10,000 cfu/ml): > 200 µg/mL; MIC [1]: > 200 µg/mL; MIC (Absidia corymbifera): > 200 µg/mL; MIC (Aspergillus fumigatus [2]; strain 437): > 200 µg/mL; MIC (Aspergillus fumigatus [2]; strain CF1004): > 200 µg/mL; MIC (Trichosporon beigelii): 0.39 µg/mL (≈ 1.27 µM); MIC (Aspergillus fumigatus [3]): > 200 µg/mL
